From publication PMC6981454, “Promising 2,6,9-Trisubstituted Purine Derivatives for Anticancer Compounds: Synthesis, 3D-QSAR, and Preliminary Biological Assays” (International Journal of Molecular Sciences, 2019)

Tests used:
Assay type in all cases: cell-based, human
[1] = tested on: CACO2; test: MTT cytotoxicity assay, 72 h; conditions: Homo sapiens, Caco-2, IC50 ± SD
Procedure: In our study, the human cancer cell lines used were CFAPC- 1 (pancreatic adenocarcinoma); NCI-H460 (large cell lung); HL-60 (acute promyelocytic leukaemia); CACO2 (colorectal adenocarcinoma); HCT-116 (colorectal carcinoma); K562 (chronic myeloid leukaemia); MCF-7 (breast adenocarcinoma); and MRC-5 control cells (normal fibroblasts).
CFAPC-1, NCI-H460 H1975, HL-60, HCT-116, CACO2, K562, MCF-7, and MCR-5 were grown and maintained in RPMI 1640 and DMEM F12 as appropriate with 10% fetal bovine serum, 100 UI/mL penicillin–streptomycin, and cultured al 37 °C in 5% CO2 humidified atmosphere. Control cultures were treated with dimethyl sulfoxide (1%) alone at the same concentration as in the purine derivatives treatment.
Cytotoxicity assays were performed by using the MTT reduction method as described in the literature [23, 37]. Briefly, cancer cell lines were plated in a flat-bottom 96-wells plate at 1 × 10^4 cells per well density. Then, the cells were incubated with synthetized compounds at different concentrations (from 0.1 to 100 µM) in 200 µL of 10% fetal bovine serum-RPMI or EMEM culture medium at 37 °C for 72 h. Then, 10 µL of MTT was added at a final concentration of 0.5 mg/mL, incubated at 37 °C for 4 h, and then solubilized with 10% sodium dodecyl sulphate (SDS) in 0.1 mM HCl and incubated overnight at 37 °C. Formazan formation was measured at 570 nm in a multi-well reader (StatFax 4200).

[2] = tested on: MRC-5; test: MTT cytotoxicity assay, 72 h, normal control cells; conditions: Homo sapiens, MRC5, IC50 ± SD, normal fibroblasts
How it was run: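 Cells seeded at 1 × 10^4 per well were exposed to compounds at 0.1 to 100 µM in 10% FBS medium for 72 h at 37 °C; 1% DMSO served as vehicle control. MTT (0.5 mg/mL final) was added for 4 h, formazan dissolved overnight in 10% SDS/0.1 mM HCl and read at 570 nm.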

[3] = tested on: HL-60 cells; test: Annexin-V FITC/PI apoptosis assay by flow cytometry; conditions: for Q2 (late apoptosis) cells / Q3 (viable) cells: 24 h
Procedure: To assess an unequivocal identification of apoptosis, annexin-V FITC is commonly combined with PI to understand if cells are viable, apoptotic, or necrotic through differences in plasma membrane integrity and permeability. To better understand the ability of compound 7h (the lowest IC50 values and high SI) to induce cell death, we performed the annexin-V FITC/PI assay. HL-60 cells were treated with 7h at the dose corresponding to 5 and 50 μM by 24 h, then harvested and stained with annexin-V FITC and PI (Figure 8). […] In addition, Figure 8 illustrates a discrete increase in the apoptosis (Q2 and Q4) from 5 to 50 µM, as well as an increase in necrosis at the concentration of 50 µM.
HL60 cells were seeded into a 12-well plate (5 × 10^5 per well) and incubated in RPMI 1640 […] for 24 h at 37 °C—then, replaced with fresh medium containing the tested compound 7h at indicated concentrations for another 24 h. The cells were collected and then used the Annexin-V/PI Alexa Fluor 488 apoptosis kit (Invitrogen, Carlsbad, CA, USA) according to the instruction of manufacturer to detect the apoptosis cells, which were analyzed by flow cytometry (BD; FACScanto II, Mountain View, CA) and data were processed using FCS Express v6 software. Two independent biological replicates were performed.

[4] = tested on: p53; test: p53-dependent transcriptional activity reporter assay (β-galactosidase) in Arn-8 cells; conditions: p53 reporter assays
Procedure: Table S3. Results of p53 activity of compounds 4a-u and 7a-j.
Compound fold p53 activity […]
p53-dependent transcriptional activity
To measure p53-dependent transcriptional activity, -galactosidase activity was determined in the human melanoma cell line Arn-8, stably transfected with a p53-responsive reporter construct pRGC foslacZ as described before. After 24 h incubation with the inhibitors, the cells were permeabilized with 0.3% Triton X-100 for 15 min, and then 4-methylumbelliferon-ß-D-galactopyranoside was added as a substrate to a final concentration of 80 µM. […]
fluorescence was measured at 355/460 nm (ex/em) with a Fluoroskan Ascent microplate reader […]
Figure S6. Dose-response effect of roscovitine on p53 activity in ARN8 cells (control experiment).
(1 picture or pasted object on this page, not shown here)

Structure (SMILES): O=[N+]([O-])c1ccc(N2CCN(c3nc(Cl)nc4c3ncn4C3CCCC3)CC2)cc1 [7h, 2-Chloro-9-cyclopentyl-6-(4-(4-nitrophenyl)piperazin-1-yl)-9H-purine]
- IC50 [1]: > 100 µM
- IC50 [2]: > 100 µM
- Q2 (late apoptosis) cells ([3]; HL-60, 5 μM): 36.5%
- Q3 (viable) cells ([3]; HL-60, 5 μM, 5 µM): ~55%
- Q2 (late apoptosis) cells ([3]; HL-60, 50 μM): 37.7%
- Q3 (viable) cells ([3]; HL-60, 50 μM, 50 µM): 38%
- viability at 5 µM ([3]; Homo sapiens, HL-60, 24 h, HL-60, 5 μM, read-out: Q3 (viable) cells): 55.2%
- viability at 50 µM ([3]; Homo sapiens, HL-60, 24 h, HL-60, 50 μM, read-out: Q3 (viable) cells): 37.8%
- effect on p53 activation [4]: no effect on p53 activation
